“Also recorded” adds a separate entry of the source. Positions of bridges follow the written chain, without caps; N, C: chain ends. No end group written: not given here.

The text below walks through data of patent US10247722B2, “Use of compounds inhibiting apelin / APJ / GP130 signaling for treating cancer” (Centre National de la Recherche Scientifique (CNRS), priority 2014, dated 2019).

In series [1] the test system is patient-derived GSCs. The experiment in a line: Secondary neurosphere/tumoursphere formation, Sox2/Nestin expression and trypan blue viability of GSCs. Format: cell-based, human. Particulars: mitogen-free medium plus APJ agonist; ML233 1 mmol·l^1, 4 days (FIG. 13).
Series [2] deals with mice intracranially implanted with GSCs. As to the kind of experiment: Orthotopic (intracranial) GSC #9 implantation in nude mice. It counts as in vivo. The protocol: FIG. 15. Anti-tumor effect of APJ inhibition. Nude mice were implanted with GSC #9 orthotopically (10^5 cells) and treated tri-weekly with intraperitoneal injection of vehicle (PBS) or APJ antagonist (MM54, 20 μmol·l^−, 4 mg/kg) starting at day 16 (arrow). Appearance of neurological symptoms (a) and weight at sacrifice (b) were monitored. Kaplan-Meier survival curve of GSC #9-bearing mice is shown (c). Data represent mean+sem of n=3 experiments. Two-way ANOVA: *P<0.05; **P<0.01.

For series [3], the system named is human GSCs implanted into immunocompromised mouse flanks. The experiment in a line: Subcutaneous GSC xenograft in nude mice, tumour growth and histology. It counts as in vivo. As to the method:
(§1) FIG. 9. Pharmacological inhibition of APJ impairs tumour growth. a. GSCs were pre-treated with APJ antagonist (MM54, 2 μmol·l^1) 45 min prior EC-CM or Apelin (Apin, 1 μmol·l^−1, 7 min) and protein lysates were analysed by western-blots with the indicated antibodies. Controls include GSC grown in complete (NS) and mitogen-free media (MF). b. STAT3 reporter activity was measured in mock, APJ, Gp130 and APJ+Gp130-transfected HEK-293T and exposed for 6 h to MF and Apin, together with either DMSO or MM54. c. GSCs were exposed to NS, EC-CM and Apin in the presence of DMSO or MM54. Tumoursphere formation per field of view (TS/FOV) was also quantified. d. Nude mice were xenografted with GSCs and bi-weekly intraperitoneal administration of vehicle (PBS) or APJ antagonist (MM54, 20 μmol·l^−1) started at week 4 (arrow). Tumour volume was measured weekly for 7 weeks. e. Frozen sections from GSC-xenografted tumours treated either with vehicle or MM54 were stained for blood vessels (PECAM), together with either Ki67 (proliferation marker or Nestin and nuclei. Percentage of dead cells was estimated by TUNEL. Quantification of both staining is shown. Data represent mean+sem on n=3 experiments. Two-way ANOVA: *P<0.05; **P<0.01.
All animal studies were carried out according to French Ministry approved protocols (agreement number #00754.02), in compliance with the European Convention for the Protection of Vertebrate Animals used for Experimental and other Scientific Purposes (ETS 123). Six weeks old females BALB/c nude mice (Janvier) were subcutaneously injected with 1*10^6 cells in 100 μl 1:1 PBS and growth factors-free matrigel (Corning). For tumour initiation (FIG. 9), mice were examined weekly in the search for tumours and sacrificed 7 weeks after implantation. For pharmacological studies (FIG. 6), mice were treated twice per week with MNI54 or vehicle (DMSO) diluted in PBS (100 μl) (intraperitoneal injection for 7 weeks), once tumours were detected (4 weeks post-implantation).
Upon sacrifice, tumours were extracted, embedded in OCT (Tissue Tek) in biomoulds, frozen by immersion in dry ice-chilled isopentane for 1 min, and stored at −80° C. for further analysis.
For immunostaining, embedded OCT-tumours were cut in 7 μm sections using a CM350S Leica cryostat (Histology platform, Institut Cochin, Paris). […]
A minimum of 3 tumour sections per condition was used, with at least 5 different fields of view (fov) each. For blood vessel surface analysis, PECAM pixel intensity was calculated in each fov and an average+sem of the total fov was represented. Cell proliferation was assessed through the percentage of Ki67-positive cells normalized to the total cell number of cells in DAPI. Nestin positive cells were counted per fov.

Series [4] deals with STAT3. The experiment in a line: STAT3 luciferase reporter assay in HEK-293T co-expressing APJ and Gp130. Format: cell-based, human. Particulars: HEK-293T co-expressing APJ and Gp130, Apelin 6 h. The protocol: as §1, with “Nude mice were xenografted with GSCs and bi-weekly intraperitoneal administration of vehicle (PBS) or APJ antagonist (MM54, 20 μmol·l^−1) started at week 4 (arrow).” left out
HEK-293T cells were co-transfected with HA-APJ, GP130, STAT3 Luciferase Reporter Vector (Affymetrix) and Renilla (Promega). […] Then, cells were lysed and STAT3 luciferase activity was measured using the Dual-Luciferase Reporter Assay (Promega). […]

In a further series the test system is Akt/mTor pathway. The experiment in a line: Western blot of Akt/mTor pathway activation (pAkt, pS6) in GSCs. Format: cell-based, human. As to the method:
FIG. 4. […] Scale bar: 40 μm. Data represent mean+sem on n=3 experiments.
as §1, with “Pharmacological inhibition of APJ impairs tumour growth. a.” left out
In general terms: Immunoblotting shows a protein as a band on a membrane.

Series [5] in a line: Toxicity observation in MM54-treated mice (body weight, heart/body weight ratio, heart anatomy). It counts as in vivo. To be noted: ectopic tumour-bearing mice, bi-weekly over 7 weeks; sham-operated female nude mice. As to the method: FIG. 16. […] Gain weight was measured in ectopic tumour bearing mice that received bi-weekly treatment over 7 weeks. b-d. Female nude mice underwent intracranial implantation of PBS (sham surgery) and then received DMSO and MM54 17 days after PBS implantation. Body weight was monitored long the experiment (a). Heart/body weight ratios were calculated at the day of sacrifice (c). General anatomy of hearts from DMSO and MM54-treated mice using the Masson Trichrome staining (d).

The subject of series [6] is patient-derived GSCs. As to the kind of experiment: Secondary neurosphere/tumoursphere formation, Sox2/Nestin expression and trypan blue viability of GSCs. It counts as cell-based, human. The protocol:
as §1, with “Pharmacological inhibition of APJ impairs tumour growth. a.” left out
FIG. 11. […] Apelin secretion was measured by EIA in positive templates (C+), mitogen-free media (MF), human brain endothelial cell (EC) and GSC conditioned media (CM). RT-PCR for Apelin and Actin is also shown for EC and GSC. b. Confocal analysis of Nestin (green), Sox2 (red) and nuclei (DAPI, blue) in GSC grown in complete media (NS), in MF, in EC-CM or MF containing only recombinant Apelin (Apin, 1 μmol·l^−1). Scale bar: 40 um. c-d. GSCs #1-16 were cultured in MF or Apin. Quantification of tumourspheres per field of view (TS/FOV) (c) and trypan blue exclusion quantification (Viable cells %) (d) was performed. e. EC received non-silencing RNA (siC) or Apin targeting siRNA (siApin). Apin extinction was checked by RT-PCR and enzyme immunoassay. f. GSCs were cultured with siC and siApin EC-CM, as prepared in (e). Confocal analysis was performed on Nestin (green), Sox2 (red) and DAPI (blue) co-staining. Scale bar: 40 μm. g-h. siC or siApin EC-CM treated GSCs were processed as in (c, d). i-k. GSCs were cultured with NS, MF, siC EC-CM and siApinEC-CM alone or plus Apin. Phase pictures are shown (i) Scale bar: 25 μm, TS/FOV and viable cells were also analysed (j, k). Data represent mean+sem on n=3 experiments. T-test: *P<0.05; **P<0.01; ***P<0.001.
GSCs were dissociated by up-and-down pipetting and cultured in a 48-well plate format. […] NS counts were blindly performed on five random fields of view (fov) and the mean of neurosphere/fov was calculated from 3 independent experiments. Statistical analyses were performed using 2-way Student's test (Excel Microsoft Office).

Series [7] deals with STAT3. To be noted: recombinant Apelin 1 μM.
Method: A. Western-blot analysis for pY-STAT3, pS-STAT3 and Total STAT3 in GSC#1 treated with complete media (NS34), deprived medium (SF), endothelial cell-conditioned media (EC-CM), or SF supplemented with Apelin (1 μM), for the indicated times. B. GSC#1 received non-silencing siRNA (sic) or siRNA targeting APJ. GSC#1 were treated with EC-CM and analyzed by western-blots using the indicated antibodies (upper panel). Alternatively, GSC#1 received EC-CM prepared from non-silencing shRNA (shC) or shRNA targeting Apelin (lower panel). […] GSC#1 received non-silencing siRNA (siC) or siRNA targeting GP130, were stimulated with EC-CM three days later, and protein lysates were analyzed by western-blots, using the indicated antibodies. D. GSC#1 were pre-treated with GP130-blocking antibody 45 min prior EC-CM or Apelin stimulation and protein lysates were analyzed by western-blots. E. Neurosphere assay was conducted in GSC#1 treated with siRNA as in (C) or with GP130-blocking antibody as in (D).
Proteins were collected in TNT buffer (10 mM Tris-HCl pH 7.5, 150 mM NaCl, 1% Triton X100, 2 mM EDTA) plus protease inhibitors (Sigma), 200 mM NaF and 0.1 mM Na3VO4. Equal amounts of proteins (microBCA kit, Pierce) were separated with 4-12% Nupage gels (Invitrogen) and transferred onto PVDF membranes (Thermo Fisher Scientific). […]
The mark [8] stands for this setting: intracranial GSC #9, intraperitoneal MM54 thrice a week (4 mg/kg) from day 16.

Turning to “Apelin 36: 36 amino acid peptide corresponding to the sequence 42-77 of the Apelin proprotein; APJ agonist (LVQPRGSRNGPGPWQGGRRKFRRQRPRLSHKGPMPF; homo sapiens; Apelin 36 aa - homo sapiens)”, in the series with patient-derived GSCs [1], the GSC survival result was “promote GSC survival”.
On the same count and under the same terms, in the case of `CC1=CC(=O)C(C2CCCCC2)=C/C1=N\OS(=O)(=O)c1ccccc1` [ML233] it was “promote GSC survival; also recorded: promotes GSC survival through APJ/GP130”.
For “cyclo(1-6)CRPRLC-KH-cyclo(9-14)CRPRLC (CRPRLCKHCRPRLC; bridge 1-6, 9-14) [MM54, APJ antagonist (Macaluso N J et al., 2011), supplied by Dr. Robert Glenn]”, the Neurological symptoms entry in series [2] (intracranial GSC #9, intraperitoneal MM54 thrice a week (20 μmol·l^−, 4 mg/kg) from day 16) is “significantly abolish”. In addition, in series [2] (setting [8]), the “Loss weight associated with tumour progression” value is recorded as “rescue” and the “Overall survival of tumour-bearing mice (Kaplan-Meier)” value was “dramatically increased”. Further, the Tumour size entry in series [2] (intracranial GSCs, intraperitoneal MM54 thrice a week) is given as “reduced”. Also, in series [3] (bi-weekly intraperitoneal MM54), the “GSC number in residual tumours, as scored with Nestin” value is reported as “decreased”; the “Overall cell proliferation (Ki67) and viability (TUNEL) in residual tumours” value is given as “decreased”; the “Tumour vascularisation (PECAM)” value was “reduction”. For the same molecule, in series [3] (bi-weekly intraperitoneal MM54 (20 μmol·l^−1) from week 4, 7 weeks), the “Tumour growth (tumour volume)” value is “capable of in vivo inhibiting tumor growth once initiated; also recorded: restrain tumor growth and expansion; also recorded: strongly hindered”. Also, in the series on STAT3 [4], the “Inhibition of Apelin-mediated STAT3 activation (STAT3 reporter activity)” value is given as “reduced”. The “Inhibition of Apelin-mediated STAT3 activation (STAT3 reporter activity)” value with STAT3 [4] (listed as pharmacological antagonist of APJ) is reported as “blocked”. In the series with Akt/mTor pathway (pre-treatment 45 min prior EC-CM or Apelin (1 μmol·l^−1, 7 min), MM54 2 μmol·l^−1), the “Inhibition of EC-CM- and Apelin-induced Akt/mTor activation in GSCs” value is “blocks; also recorded: alleviated”. Further, in series [5], the “Toxic effects of treatment” value is reported as “does not exert any obvious toxic effects”. Further, the “Neurosphere number and size, with Sox2/Nestin” value in the series on patient-derived GSCs [6] (GSCs cultured with EC-CM) is listed as “dramatically decreased”. Besides, in the series with patient-derived GSCs [6] (GSCs exposed to EC-CM or Apelin in presence of DMSO or MM54), the “Endothelial Apelin-dependent GSC self-renewal and survival (tumoursphere formation)” value was “blocks; also recorded: impaired”.
With Apelin 13, in the series with patient-derived GSCs [1], the GSC survival result is reported as “promote GSC survival”.
With Apelin, the “Activation of the Akt/mTor pathway in GSCs (Akt, S6 phosphorylation)” value in the series on Akt/mTor pathway (recombinant Apelin 1 μM, no other exogenous mitogen) was “able to activate this pathway in a similar extend than EC-CM; also recorded: triggered the activation of the mTor signalling cascade”. Moreover, the “Activation of STAT3 signaling in GSCs” value in the series on STAT3 [7] is recorded as “able to activate this signaling pathway”. Besides, in the series with patient-derived GSCs [1], the GSC survival entry was “has an effect on GSCs survival”. Also, the “EC-CM-sustained self-renewal and viability of GSCs” value in the series on patient-derived GSCs [6] (exogenous Apelin added into Apelin-depleted endothelial cell-derived media) is on record as “restored”. The “GSC self-renewal (secondary neurosphere formation and Sox2/Nestin expression)” value with patient-derived GSCs [6] (recombinant Apelin 1 μM in mitogen-free media, panel of 16 patient-derived GSCs) was “sufficient to support self-renewal; also recorded: maintained”. Moreover, in the series with patient-derived GSCs [6] (recombinant Apelin in mitogen-free media, trypan blue exclusion), the “Mitogen deprivation-induced cell death” value is on record as “hindered”.
